The supplement of paper PMC11208160

assay: recombinant UMI read abundance after kanamycin selection (control-corrected) (log10(CPM+1)); higher = more efficient recombination; extreme values may be limits of the assay; sequences stand for … in AGTGCAGAGAAAATCGGCCAGTTTTCTCTGCCTGCAGTCCGCATGCCGTGGGACCCCTTGGGTTCTAACCTGTTGCCTAGATTTATGCAGCGGACTGCCTTTCTCCCAAAGTGATAAACCGG…AGGTTGGTTTCACT; site = the 11-nt donor
Experimental: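 Pooled E. coli donor-specificity screen for the IS621 bridge recombinase. Each library member carries a reprogrammed 11-nt donor and a full-length LE bridge RNA expressed in cis from the natural promoter, with a paired donor-binding loop (8-nt LDG + 4-nt RDG) and a target-binding loop fixed to T5. It is co-electroporated with a T5 target plasmid; recombinase is induced with 0.07 mM IPTG and recombinants are selected on kanamycin. UMIs are counted as CPM, averaged over two biological replicates and corrected by the unselected control. Molecule = full bridge RNA written as DNA, built from the T5 scaffold: LDG = donor specificity nt 1-8, RDG = reverse complement of nt 8-11.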
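Also: IS621 bridge recombinase in Escherichia coli cells against a fixed T5 target plasmid.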

Going from “AATGGAACATGGACCGGTTTTCCCGGTAATCCGTATTTGCT (site AATGAAACTAG)” to “AATGGAACATGGACCGGTTTTCCCGGTAATCCGTATTTGCT (site AATGCAACTAG)”, the “recombinant UMI read abundance (log10)” value rises from 0.482 to 1.05.

First: AATGGAACATGGACCGGTTTTCCCGGTAATCCGTATTTGCT (site AATGGAACTAG)
Second: AATGGAACATGGACCGGTTTTCCCGGTAATCCGTATTTGCT (site AATGTAACTAG)
The “recombinant UMI read abundance (log10)” value of the first is higher: 2.12 for the first, 1.78 for the second.

Compared with “AATGGATCATGGACCGGTTTTCCCGGTAATCCGTATTTGAA (site AATGGATCTTT)”, “AATGTACCATGGACCGGTTTTCCCGGTAATCCGTATTTGCG (site AATGTACCTCG)” is lower in “recombinant UMI read abundance (log10)” value: 2.07 for the first, 0.0178 for the second.

Compared with “AATGTCACATGGACCGGTTTTCCCGGTAATCCGTATTTGCT (site AATGTAACTAG)”, “AATGTCACATGGACCGGTTTTCCCGGTAATCCGTATTTGCT (site AATGTCACTAG)” is higher in “recombinant UMI read abundance (log10)” value: 0.799 for the first, 2.41 for the second.

First: AATGTCACATGGACCGGTTTTCCCGGTAATCCGTATTTGCT (site AATGTGACTAG)
Second: AATGTCACATGGACCGGTTTTCCCGGTAATCCGTATTTGCT (site AATGTTACTAG)
The “recombinant UMI read abundance (log10)” value of the first is lower: 0.0645 for the first, 0.647 for the second.

Compared with “AATGTCTCATGGACCGGTTTTCCCGGTAATCCGTATTTGAC (site AATGTATCTGT)”, “AATGTCTCATGGACCGGTTTTCCCGGTAATCCGTATTTGAC (site AATGTCTCTGT)” is higher in “recombinant UMI read abundance (log10)” value: 1.32 for the first, 2.21 for the second.

“AATGTCTCATGGACCGGTTTTCCCGGTAATCCGTATTTGAC (site AATGTGTCTGT)” and “AATGTCTCATGGACCGGTTTTCCCGGTAATCCGTATTTGAC (site AATGTTTCTGT)” are the same in “recombinant UMI read abundance (log10)” value: 0 for the first, 0 for the second.

Going from “AATGTGACATGGACCGGTTTTCCCGGTAATCCGTATTTGAC (site AATGTGACTGT)” to “AATGTGACATGGACCGGTTTTCCCGGTAATCCGTATTTGAC (site AATGTGCCTGT)”, the “recombinant UMI read abundance (log10)” value falls from 2.69 to 0.

First: AATGTGACATGGACCGGTTTTCCCGGTAATCCGTATTTGAC (site AATGTGGCTGT)
Second: AATGTGACATGGACCGGTTTTCCCGGTAATCCGTATTTGAC (site AATGTGTCTGT)
The “recombinant UMI read abundance (log10)” value of the first is higher: 1.01 for the first, 0 for the second.

First: AATGTGGCATGGACCGGTTTTCCCGGTAATCCGTATTTGAC (site AATGTGACTGT)
Second: AATGTGGCATGGACCGGTTTTCCCGGTAATCCGTATTTGAC (site AATGTGCCTGT)
The “recombinant UMI read abundance (log10)” value of the first is higher: 1.16 for the first, 0.00397 for the second.

Going from “AATGTGGCATGGACCGGTTTTCCCGGTAATCCGTATTTGAC (site AATGTGGCTGT)” to “AATGTGGCATGGACCGGTTTTCCCGGTAATCCGTATTTGAC (site AATGTGTCTGT)”, the “recombinant UMI read abundance (log10)” value falls from 1.81 to 0.451.

Compared with “AATGTGTCATGGACCGGTTTTCCCGGTAATCCGTATTTGGC (site AATGTGTCTGA)”, “AATGTGTCATGGACCGGTTTTCCCGGTAATCCGTATTTGGC (site AATGTGTCTGC)” is higher in “recombinant UMI read abundance (log10)” value: 0 for the first, 2.67 for the second.

First: AATGTGTCATGGACCGGTTTTCCCGGTAATCCGTATTTGGC (site AATGTGTCTGG)
Second: AATGTGTCATGGACCGGTTTTCCCGGTAATCCGTATTTGGC (site AATGTGTCTGT)
The “recombinant UMI read abundance (log10)” value of the first is lower: 0.957 for the first, 1.99 for the second.

Compared with “AATGTTTCATGGACCGGTTTTCCCGGTAATCCGTATTTGAC (site AATGTATCTGT)”, “AATGTTTCATGGACCGGTTTTCCCGGTAATCCGTATTTGAC (site AATGTCTCTGT)” is lower in “recombinant UMI read abundance (log10)” value: 1.73 for the first, 0 for the second.

“AATGTTTCATGGACCGGTTTTCCCGGTAATCCGTATTTGAC (site AATGTGTCTGT)” and “AATGTTTCATGGACCGGTTTTCCCGGTAATCCGTATTTGAC (site AATGTTTCTGT)” are the same in “recombinant UMI read abundance (log10)” value: 0 for the first, 0 for the second.

Compared with “AATTAAACATGGACCGGTTTTCCCGGTAATCCGTATTTGTA (site AATTAAACTTA)”, “AATTAAACATGGACCGGTTTTCCCGGTAATCCGTATTTGTT (site AATTAAACTAA)” is lower in “recombinant UMI read abundance (log10)” value: 0.643 for the first, 0.00778 for the second.

Compared with “AATTAATCATGGACCGGTTTTCCCGGTAATCCGTATTTGAT (site AATTAATCTAT)”, “AATTAGGCATGGACCGGTTTTCCCGGTAATCCGTATTTGGG (site AATTAGGCTCC)” is lower in “recombinant UMI read abundance (log10)” value: 1.47 for the first, 0.0811 for the second.

First: AATTATACATGGACCGGTTTTCCCGGTAATCCGTATTTGGA (site AATTATACTTC)
Second: AATTATACATGGACCGGTTTTCCCGGTAATCCGTATTTGGA (site AATTATCCTTC)
The “recombinant UMI read abundance (log10)” value of the first is higher: 0.828 for the first, 0.0125 for the second.

“AATTATACATGGACCGGTTTTCCCGGTAATCCGTATTTGGA (site AATTATGCTTC)” and “AATTATACATGGACCGGTTTTCCCGGTAATCCGTATTTGGA (site AATTATTCTTC)” are within 0.2 log units of each other in “recombinant UMI read abundance (log10)” value: 0.476 for the first, 0.335 for the second.

“AATTATGCATGGACCGGTTTTCCCGGTAATCCGTATTTGAA (site AATTATGCTTA)” and “AATTATGCATGGACCGGTTTTCCCGGTAATCCGTATTTGAA (site AATTATGCTTC)” are within 0.2 log units of each other in “recombinant UMI read abundance (log10)” value: 0.0142 for the first, 0.0246 for the second.

Going from “AATTATGCATGGACCGGTTTTCCCGGTAATCCGTATTTGAA (site AATTATGCTTG)” to “AATTATGCATGGACCGGTTTTCCCGGTAATCCGTATTTGAA (site AATTATGCTTT)”, the “recombinant UMI read abundance (log10)” value rises from 0 to 0.313.

First: AATTATGCATGGACCGGTTTTCCCGGTAATCCGTATTTGGG (site AATTATGCTAC)
Second: AATTATGCATGGACCGGTTTTCCCGGTAATCCGTATTTGGG (site AATTATGCTCC)
The “recombinant UMI read abundance (log10)” value of the first is lower: 0.00898 for the first, 0.388 for the second.

“AATTATGCATGGACCGGTTTTCCCGGTAATCCGTATTTGGG (site AATTATGCTGC)” and “AATTATGCATGGACCGGTTTTCCCGGTAATCCGTATTTGGG (site AATTATGCTTC)” are within 0.2 log units of each other in “recombinant UMI read abundance (log10)” value: 0 for the first, 0.0224 for the second.

First: AATTATGCATGGACCGGTTTTCCCGGTAATCCGTATTTGTA (site AATTATGCTTA)
Second: AATTATGCATGGACCGGTTTTCCCGGTAATCCGTATTTGTA (site AATTATGCTTC)
The “recombinant UMI read abundance (log10)” value of the first is higher: 1.02 for the first, 0.0111 for the second.

“AATTATGCATGGACCGGTTTTCCCGGTAATCCGTATTTGTA (site AATTATGCTTG)” and “AATTATGCATGGACCGGTTTTCCCGGTAATCCGTATTTGTA (site AATTATGCTTT)” are within 0.2 log units of each other in “recombinant UMI read abundance (log10)” value: 0.00449 for the first, 0.0175 for the second.

First: AATTGGGCATGGACCGGTTTTCCCGGTAATCCGTATTTGAT (site AATTGGGCTAT)
Second: AATTTGGCATGGACCGGTTTTCCCGGTAATCCGTATTTGTG (site AATTTGGCTCA)
The “recombinant UMI read abundance (log10)” value of the first is higher: 0.68 for the first, 0.122 for the second.
